Values quoted from earlier work in US8993607B2, “Therapeutic compounds” (Rutgers, The State University of New Jersey, priority 2007, dated 2015).

Legend:
[1] = test system: human breast cancer cell lines HBC-4, BSY-1, HBC-5, MCF-7, and MDA-MB-231; conditions: range over HBC-4, BSY-1, HBC-5, MCF-7, MDA-MB-231; Sohda et al., 2005
[2] = target: telomerase; conditions: read-out: telomerase inhibitory activity IC50
[3] = test system: SK-N-AS; conditions: human neuroblastoma cell line SK-N-AS; Binz et al., 2005; read-out: cytotoxicity IC50
[4] = test system: WAC2; conditions: human neuroblastoma cell line WAC2; Binz et al., 2005; read-out: cytotoxicity IC50
[5] = test system: K62 leukemia cells; conditions: Tauchi et al., 2003
[6] = test system: natural bone marrow CD34-positive cells; conditions: compared, Tauchi et al., 2003
[7] = test system: LAN1; conditions: human neuroblastoma cell line LAN1; Binz et al., 2005; read-out: cytotoxicity IC50
[8] = test system: LANS; conditions: human neuroblastoma cell line LANS; Binz et al., 2005; read-out: cytotoxicity IC50
[9] = test system: MiaPaCa; conditions: human pancreatic carcinoma MiaPaCa; Liu et al., 2005; read-out: cytotoxicity IC50

SMILES	GI50 [1] [nM]	IC50 [2] [nM]	IC50 [3] [nM]	IC50 [4] [nM]	plating efficiency [5]	effect on burst-forming units—erythrocyte (BFU-E) and colony-forming units—granulocyte/macrophage (CFU-GM) [6]	IC50 [7] [nM]	IC50 [8] [nM]	IC50 [9] [nM]
CC[C@H](C)[C@@H]1NC(=O)c2nc(oc2-c2ccccc2)-c2csc(n2)-c2coc(n2)-c2coc(n2)-c2coc(n2)CNC(=O)[C@@H](C(C)C)NC1=O [YM-216391]	15 to 33								
Cc1oc2nc1-c1nc(co1)-c1nc(co1)-c1nc(co1)-c1nc(co1)-c1nc(co1)C1=NC(CS1)c1nc-2c(C)o1 (stereo not drawn) [telomestatin]		5	800	3200	suppress the plating efficiency	much lesser effect	4000	2500	500
